Data: patent publication US20190113503A1 (priority 2016, published 2019)

Assays:
[1] = tested on: KCB cells; settings: 12-14 hours exposure
Procedure: The inventive cells were cryopreserved in a solution consisting of 10% DMSO and 10% FBS (fetal-bovine-serum) in MEM (minimum-essential-medium) at −80° C. The cells were thawed, washed with MEM and transferred to a 96 micro-well plate. In order to avoid evaporation of medium and consequent bias in MN frequency, the outer wells were left empty and the micro-well plate was sealed with duct tape. The inner wells were filled with cells in medium. The medium employed was composed of 86% MEM, 10% FBS, 1% non-essential-amino acids, 1% streptomycin (5 mg/ml in PBS—phosphate-buffered saline), 1% penicillin (3.125 mg/ml in PBS) and 1% amphotericin (250 μg/ml in deionized water). The cells were cultivated at 26° C. until they formed a moderately dense monolayer. The time until optimal monolayer density was achieved varied from two to five days.
Two untreated (i.e. not exposed to genotoxic compounds) columns served as internal (negative) controls of each plate.
It is possible, but not absolutely necessary, to replace the exposure medium by a recovery medium before the scoring. The scoring of micronuclei shall take place earliest 2 hours and latest 12 hours after the end of the exposure period.
In the basic test, a minimum of two pictures per well, corresponding to at least 24 pictures per concentration or control, were taken under a fluorescence microscope with an objective magnification of 40×. Normal cell nuclei, MN and fragmented nuclei in each picture were counted visually with aid of the “Cell Counter” plugin from the public domain image processing software “ImageJ”. Finally, the frequencies of MN per concentration were calculated.

[2] = tested on: carp (Cyprinus carpio) erythrocytes; settings: fish injected with 0.4 mg colchicine/kg body weight; background 2%; cited from earlier work
[3] = tested on: human skin fibroblasts; settings: colchicine 20 ng/mL (around 0.05 μM), 72 hours; background 0.2-0.9%; cited from earlier work
[4] = tested on: human lymphocytes; settings: colchicine 0.06 μM, 24 hours; controls 1%; cited from earlier work

Row | Structure (SMILES) | concentrations at which a cytotoxic threshold may have been achieved (MN frequency diminishing or stabilizing) [1] | MN frequency [2] | MN frequency [3] | MN frequency [4] | maximal MN frequency ([1]; colchicine at 0.375 μM) | maximal frequency of fragmented nuclei ([1]; colchicine at 0.5 μM)
1 | O=[N+]([O-])c1cc[n+]([O-])c2ccccc12 [4NQO, 4-Nitroquinoline 1-oxide] | ≥ 600 nM |  |  |  |  | 
2 | COc1cc2c(c(OC)c1OC)-c1ccc(OC)c(=O)cc1[C@@H](NC(C)=O)CC2 [colchicine] | higher than 0.188 μM | around 10% | up to 4.7% | around 15.2% | 1.77% | 6.85%
